# Several values for one entry are separate records, joined by “and”; a condition that tells them apart may be missing. Identical values can stand only once. Like-named read-outs stand apart in the source and are kept apart here.
# Columns and labels:
# BMDCs = assay: LDH release (lytic cell death, pyroptosis) from LPS-primed BMDCs; assay type: cell-based, mouse; conditions: for cytotoxicity at 18.75 µM / cytotoxicity at 37.5 µM / cytotoxicity at 75 µM / cytotoxicity at 50 µM / cytotoxicity at 20 µM / cytotoxicity at 40 µM / cytotoxicity at 80 µM: Mus musculus, BMDC; for Average (% positive control): LDH release; for cytotoxicity at 50 µM: LPS-primed BMDCs
# In short: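 Mouse BMDCs (7-9 days differentiated, GM-CSF) primed with 50 ng ml^−1 E. coli K12 LPS for 3 hours, then exposed 3 hours to compounds (50 μM unless indicated) or activators (nigericin 5 μM; R837, CL097 100 μM). Lytic death measured as LDH release by colorimetric assay, triplicate wells.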
# NLRP3 inflammasome = molecular target: T1, NLRP3 inflammasome (Mus musculus, UniProt Q8R4B8); assay: IL-1β release from LPS-primed BMDCs (ELISA) as readout of NLRP3 inflammasome activation; assay type: cell-based
# T1 construct: endogenous in cells; host or cells: primary mouse bone marrow-derived dendritic cells (BMDCs), LPS-primed
# In short: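 NLRP3 inflammasome activation was read out as IL-1β released into the supernatant, measured by ELISA. Murine BMDCs were primed with LPS (50 ng ml^−1, 3 hours), then incubated with compounds for 3 hours, with each condition run in three technical replicates. Nigericin at 5 μM acted as the positive control activator, and IL-1β release was also expressed as a percentage of that control.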
# [1] = compound 50 μM, positive control nigericin 5 μM
# [2] = compound 50 μM, read-out: Average LDH release (% of max.)
# [3] = single replicates, compound 50 μM, read-out: LDH release (% of max.)
# [4] = IL-1β release, compound 50 μM, positive control nigericin 5 μM
# [5] = compound 50 μM, LPS-primed BMDCs
# [6] = single replicates, compound 50 μM, LPS-primed BMDCs
# T1 sequence (Q8R4B8 whole entry): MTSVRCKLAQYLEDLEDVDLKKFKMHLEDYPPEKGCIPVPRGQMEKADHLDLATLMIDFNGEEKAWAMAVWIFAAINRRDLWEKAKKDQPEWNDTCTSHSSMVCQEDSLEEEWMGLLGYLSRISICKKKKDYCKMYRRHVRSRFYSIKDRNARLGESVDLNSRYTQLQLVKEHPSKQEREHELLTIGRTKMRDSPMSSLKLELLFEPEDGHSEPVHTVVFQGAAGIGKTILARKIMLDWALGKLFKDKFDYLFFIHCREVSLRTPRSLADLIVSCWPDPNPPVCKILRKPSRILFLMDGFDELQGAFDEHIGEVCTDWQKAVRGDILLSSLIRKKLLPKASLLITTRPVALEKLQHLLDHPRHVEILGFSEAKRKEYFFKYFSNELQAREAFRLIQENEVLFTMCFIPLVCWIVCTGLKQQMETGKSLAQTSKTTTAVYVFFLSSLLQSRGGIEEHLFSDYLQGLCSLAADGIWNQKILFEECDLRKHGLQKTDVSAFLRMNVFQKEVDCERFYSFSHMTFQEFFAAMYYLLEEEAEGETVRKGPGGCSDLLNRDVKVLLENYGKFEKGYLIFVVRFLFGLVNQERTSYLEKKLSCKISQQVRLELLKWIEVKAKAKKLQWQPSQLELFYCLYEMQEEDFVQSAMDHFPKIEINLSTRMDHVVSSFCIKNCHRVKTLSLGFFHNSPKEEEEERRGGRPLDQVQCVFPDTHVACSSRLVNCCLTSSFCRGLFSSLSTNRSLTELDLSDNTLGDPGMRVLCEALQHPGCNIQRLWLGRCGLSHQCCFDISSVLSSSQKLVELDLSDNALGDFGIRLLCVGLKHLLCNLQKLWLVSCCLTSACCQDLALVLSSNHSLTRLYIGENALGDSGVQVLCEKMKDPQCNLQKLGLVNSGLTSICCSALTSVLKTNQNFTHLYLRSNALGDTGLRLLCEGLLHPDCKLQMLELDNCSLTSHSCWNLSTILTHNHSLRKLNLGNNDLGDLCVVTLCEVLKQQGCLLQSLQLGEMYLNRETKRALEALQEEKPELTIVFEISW
structure (smiles),measurement,setting,value
"O=C(Nc1ccccc1Cl)Nc1ccc([N+](=O)[O-])cc1Cl [A.C2, 3-(2-chloro-4-nitrophen-yl)-1-(2-chlorophenyl)-urea]",cytotoxicity at 18.75 µM,"BMDCs; section 1.4, 18.75 μM, read-out: Average LDH release (% of max.)",17.8%
same,cytotoxicity at 37.5 µM,"BMDCs; section 1.4, 37.5 μM, read-out: Average LDH release (% of max.)",45.7%
same,cytotoxicity at 75 µM,"BMDCs; section 1.4, 75 μM, read-out: Average LDH release (% of max.)",75.8%
same,cytotoxicity at 18.75 µM,"BMDCs; section 1.4, single replicates, 18.75 μM, read-out: LDH release (% of max.)",18.4%
same,cytotoxicity at 37.5 µM,"BMDCs; section 1.4, single replicates, 37.5 μM, read-out: LDH release (% of max.)",46.6%
same,cytotoxicity at 75 µM,"BMDCs; section 1.4, single replicates, 75 μM, read-out: LDH release (% of max.)",77.1%
same,Average (% positive control),"BMDCs; section 1.4, 18.75 μM, positive control EN22 18.75 μM",24.912 % positive control
same,Average (% positive control),"BMDCs; section 1.4, 37.5 μM, positive control EN22 18.75 μM",64.016 % positive control
same,Average (% positive control),"BMDCs; section 1.4, 75 μM, positive control EN22 18.75 μM",106.244 % positive control
same,Average IL-1β,NLRP3 inflammasome; 18.75 μM,0.118 ng/mL
same,IL-1β,"NLRP3 inflammasome; 18.75 μM, individual replicate values",0.128 ng/mL and 0.116 ng/mL and 0.111 ng/mL
same,Average IL-1β,NLRP3 inflammasome; 37.5 μM,0.361 ng/mL
same,IL-1β,"NLRP3 inflammasome; 37.5 μM, individual replicate values",0.377 ng/ml and 0.353 ng/ml (2×)
same,Average IL-1β,NLRP3 inflammasome; 75 μM,0.525 ng/mL
same,IL-1β,"NLRP3 inflammasome; 75 μM, individual replicate values",0.459 ng/mL and 0.546 ng/mL and 0.571 ng/mL
same,Average (% positive control),"NLRP3 inflammasome; IL-1β, 18.75 μM, positive control EN22 18.75 μM",1.870 % positive control
same,Average (% positive control),"NLRP3 inflammasome; IL-1β, 37.5 μM, positive control EN22 18.75 μM",5.712 % positive control
same,Average (% positive control),"NLRP3 inflammasome; IL-1β, 75 μM, positive control EN22 18.75 μM",8.308 % positive control
"O=C(Nc1ccccc1)Nc1cccc(NC(=O)C2CCCC2)c1 [L01.103, N-{3-[(phenylcarbamo-yl)amino]phenyl}cyclo-pentanecarboxamide]",Average (% positive control),BMDCs; [1],10.791 % positive control
same,cytotoxicity at 50 µM,BMDCs; [2],7.89%
same,cytotoxicity at 50 µM,BMDCs; [3],6.58%
same,Average (% positive control),NLRP3 inflammasome; [4],1.624 % positive control
same,Average IL-1β,NLRP3 inflammasome; [5],0.116 ng/mL
same,IL-1β,NLRP3 inflammasome; [6],0.060 ng/mL and 0.049 ng/mL and 0.240 ng/mL
"O=C(Nc1ccccc1)Nc1ccc(N2CCCC2)cc1 [L01.004, 3-phenyl-1-[4-(pyrrol-idin-1-yl)phenyl]urea]",Average (% positive control),BMDCs; [1],23.074 % positive control
same,cytotoxicity at 50 µM,BMDCs; [2],16.9%
same,cytotoxicity at 50 µM,BMDCs; [3],15.2%
same,Average (% positive control),NLRP3 inflammasome; [4],19.737 % positive control
same,Average IL-1β,NLRP3 inflammasome; [5],1.415 ng/mL
same,IL-1β,NLRP3 inflammasome; [6],1.192 ng/mL and 1.485 ng/mL and 1.567 ng/mL
"O=C(Nc1ccccc1)Nc1ccc2ncc(Br)cc2c1 [JB004, 1-(3-bromoquinolin-6-yl)-3-phenylurea]",Average (% positive control),"BMDCs; 20 μM, positive control EN22 20 μM",39.589 % positive control
same,Average (% positive control),"BMDCs; 40 μM, positive control EN22 20 μM",51.749 % positive control
same,Average (% positive control),"BMDCs; 80 μM, positive control EN22 20 μM",68.244 % positive control
same,cytotoxicity at 20 µM,"BMDCs; 20 μM, individual replicate values, read-out: LDH release (% of max.)",31%
same,cytotoxicity at 20 µM,"BMDCs; 20 μM, read-out: Average LDH release (% of max.)",21.1%
same,cytotoxicity at 40 µM,"BMDCs; 40 μM, individual replicate values, read-out: LDH release (% of max.)",25.6%
same,cytotoxicity at 40 µM,"BMDCs; 40 μM, read-out: Average LDH release (% of max.)",27.6%
same,cytotoxicity at 80 µM,"BMDCs; 80 μM, individual replicate values, read-out: LDH release (% of max.)",34.3%
same,cytotoxicity at 80 µM,"BMDCs; 80 μM, read-out: Average LDH release (% of max.)",36.4%
same,Average IL-1β,NLRP3 inflammasome; 20 μM,0.971 ng/mL
same,IL-1β,"NLRP3 inflammasome; 20 μM, individual replicate values",0.966 ng/mL and 0.765 ng/mL and 1.182 ng/mL
same,Average IL-1β,NLRP3 inflammasome; 40 μM,1.507 ng/mL
same,IL-1β,"NLRP3 inflammasome; 40 μM, individual replicate values",1.350 ng/mL and 1.479 ng/mL and 1.691 ng/mL
same,Average IL-1β,NLRP3 inflammasome; 80 μM,1.657 ng/mL
same,IL-1β,"NLRP3 inflammasome; 80 μM, individual replicate values",1.684 ng/mL and 1.413 ng/mL and 1.876 ng/mL
same,Average (% positive control),"NLRP3 inflammasome; IL-1β, 20 μM, positive control EN22",49.601 % positive control
same,Average (% positive control),"NLRP3 inflammasome; IL-1β, 40 μM, positive control EN22",76.971 % positive control
same,Average (% positive control),"NLRP3 inflammasome; IL-1β, 80 μM, positive control EN22",84.675 % positive control
"Cc1ccc(NC(=O)NCc2nc(Cc3ccccc3)no2)cc1 [L01.088, 3-[(3-benzyl-1,2,4-oxadiazol-5-yl)methyl]-1-(4-methylphenyl)urea]",Average (% positive control),BMDCs; [1],7.174 % positive control
same,cytotoxicity at 50 µM,BMDCs; [2],5.25%
same,cytotoxicity at 50 µM,BMDCs; [3],5.68%
same,Average (% positive control),NLRP3 inflammasome; [4],0.866 % positive control
same,Average IL-1β,NLRP3 inflammasome; [5],0.062 ng/mL
same,IL-1β,NLRP3 inflammasome; [6],0.069 ng/mL and 0.058 ng/mL and 0.059 ng/mL
